Experimental data: US20110182830A1, “INHALATION DRUG PRODUCTS, SYSTEMS AND USES” (Schering Corporation, priority 2008, published 2011)

What was measured:
[1] = Andersen Cascade Impactor (ACI) with USP throat, aerodynamic particle size distribution, pMDI alone vs pMDI with chamber, continuous flow 28.3 L/min; type: physicochemical; conditions: for reduction in FPD (μg) as compared to the pMDI alone: pMDI with OPTICHAMBER
Protocol: Pressurized MDI products were tested alone and as an inhalation system/drug product which included a pMDI in combination with one chamber such as the A[…]-STAT Plus™ (volume=148 mL), A[…]® (volume=[…]), VORTEX® AND OPTICHAMBER®.
An Andersen Cascade Impactor (ACI) with USP throat was used to measure aerodynamic particle size distribution. Two impactor configurations were used for the two flow rates. Plates 0 through 7 were used for sampling at 28.3 L/min; plates—1 through 6 were used for sampling at 60 L/min. The effective cut off diameters for the plates in each configuration were provided by the manufacturer. Total delivered dose values report the total mass of active ingredient recovered from the impactor (throat, plates and filter). Fine particle dose values report the total mass of active ingredient with aerodynamic diameter less than 4.7 μm.
FIGS. 1 and 2 show throat, fine particle dose and total delivered dose recoveries for both active ingredients, as measured by ACI under continuous flow at 28.3 L/min. Recoveries are shown for different spacer devices and the pMDI, as indicated in the legends. Data points represent mean values (n=5); error bars indicate one standard deviation.

[2] = cited from earlier work
[3] = cited from earlier work; remark: listed apart in the source
[4] = pMDI with AEROCHAMBER Z-STAT PLUS

Row | Structure (SMILES) | difference in fine particle dose (FPD, <4.7 μm) vs pMDI alone ([1]; pMDI with AEROCHAMBER MAX) | difference in fine particle dose (FPD, <4.7 μm) vs pMDI alone [1, 4] | reduction in FPD (μg) as compared to the pMDI alone [1] | difference in fine particle dose (FPD, <4.7 μm) vs pMDI alone ([1]; pMDI with VORTEX) | solubility in acetone [2] | solubility in diethyl ether ([2]; diethyl ether) | solubility in ethanol [2] | solubility in ethyl acetate ([2]; ethyl acetate) | solubility in glacial acetic acid ([2]; glacial acetic acid) | solubility in isopropanol [2] | solubility in methanol [2] | solubility in water [2] | partition coefficient between octanol and water [3] | reduction of deposition in the throat portion of the ACI ([1]; use of several of the chambers vs pMDI alone) | solubility in chloroform ([2]; chloroform) | solubility in tetrahydrofuran ([2]; tetrahydrofuran)
1 | COc1ccc(CC(C)NCC(O)c2ccc(O)c(NC=O)c2)cc1.O.O.O=C(O)/C=C/C(=O)O (racemic) [formoterol fumarate, (±)2-hydroxy-5-[(1RS)-1-hydroxy-2-[[(1RS)-2-(4-methoxyphenyl)-1methylethyl]-amino]ethyl] formanilide fumarate dihydrate] | ≤ 15% | less than 5% | about 30% | ≤ 20% | practically insoluble | practically insoluble | sparingly soluble | practically insoluble | freely soluble | sparingly soluble | soluble | slightly soluble | – | – | – | –
2 | C[C@@H]1C[C@H]2[C@@H]3CCC4=CC(=O)C=C[C@]4(C)[C@@]3(Cl)[C@@H](O)C[C@]2(C)[C@@]1(OC(=O)c1ccco1)C(=O)CCl [mometasone furoate, 9,21-Dichloro-11(beta), 17-dihydroxy-16(alpha)-methylpregna-1,4-diene-3,20-dione 17-(2 furoate)] | ≤ 15% | less than 5% | about 30% | ≤ 20% | soluble | – | slightly soluble | – | – | slightly soluble | slightly soluble | practically insoluble | greater than 5000 | about 90% | soluble | freely soluble
